From US20090215791A1, “NEW THERAPEUTIC USE OF 4-(2-FLUOROPHENYL)-6-METHYL-2-(1-PIPERAZINYL)THIENO[2,3-D]PYRIMIDINE” (Dynogen Pharmaceuticals, Inc., priority 2001, published 2009)

How the values were obtained:
[1] = tested on: inflammatory pain (inflamed paw); assay: Inflammatory pain, modified Randall Selitto method, paw pressure analgesiometer (Study 1); assay type: in vivo, rats; conditions: for Group mean (±sd) pain threshold (g) of inflamed paw at 1 hour pre-dose / Group mean (±sd) pain threshold (g) of inflamed paw at 2 hour pre-dose: baseline before dosing, 13 per group, groups later given MCI-225 30 mg/kg or indomethacin 1 mg/kg
Method: Three groups of rats received vehicle, indomethacin or MCI-225. There were 13 rats in each group. Inflammatory pain was induced following a modified Randall Selitto method and the pain threshold of the inflamed paw was measured using a paw pressure analgesiometer. The threshold for paw withdrawal was measured in grams at 1 and 3 hours post dose.

[2] = tested on: reflex depressor response to colorectal distension; assay: Reflex depressor response to colorectal distension in anesthetised rats (Study 2); assay type: in vivo, male Sprague-Dawley rats; conditions: for Fall in arterial blood pressure (mean absolute decrease in mean arterial pressure, SEM in brackets) evoked by balloon distension: after MCI-225 3 mg/kg i.v.
Method: In Study 2, using intact animals, the ability of a drug to inhibit the reflex depressor response to colorectal distension can be assessed. In this model, an inhibition of the reflex indicates modulation of visceral nociceptive neurotransmission and, therefore, the use of the drug in functional bowel disease (e.g IBS); see Kozlowski et al, 2000, Gut 46, 474-480. Allodynia and visceral pain are important components of functional bowel disease.
Experiments were performed on male Sprague-Dawley rats (250-300 g). Anesthesia was induced with isoflurane (2.5% in oxygen) and maintained with alpha chlorolose (80 mg/kg i.v.). The left carotid artery was cannulated for the measurement of blood pressure and heart rate and the left jugular vein cannulated for drug administration. A tracheal cannula was implanted for artificial respiration if required. A 10 mm long latex balloon was inserted intrarectally so that the tip of the balloon was 20 mm from the anal verge (Kozlowski et al, supra). The balloon was connected via a double lumen cannula to a pressure transducer and also to a saline-filled syringe for inflation/deflation of the balloon. Throughout the experiment, body temperature was kept constant at 36-38 C using a homeothermic blanket.
Once stable baseline parameters were obtained (approximately after 20 minutes), the balloon was rapidly inflated with increasing volumes of saline (0.5-2.5 ml) for 30 seconds at 5 minute intervals, and the resultant change in blood pressure recorded. Three distinct response curves were constructed, with a 10 minute stabilisation period between each curve. In one group of animals, 10 minutes prior to the commencement of the final distension response curve, a single bolus of MCI-225 (3 mg/kg) was administered intravenously; in a second group of animals, a single bolus dose of vehicle was administered. The effect of MCI-225 and vehicle was determined by analysing the changes in colorectal distension that evoked depressor response.

| Structure (SMILES) | Group mean changes (±sd) in pain threshold (g) from pre-dose reading at 1 hour post-dose ([1]; 1 hour post-dose, MCI-225 30 mg/kg (oral), indomethacin 1 mg/kg, rats, * p<0.05, ** p<0.01 vs vehicle, monohydrate hydrochloride) [g] | Group mean changes (±sd) in pain threshold (g) from pre-dose reading at 3 hour post-dose ([1]; 3 hour post-dose, MCI-225 30 mg/kg (oral), indomethacin 1 mg/kg, rats, * p<0.05, ** p<0.01 vs vehicle, monohydrate hydrochloride) [g] | Analgesic activity in in vivo model of inflammatory pain (in words) ([1]; MCI-225 oral dose of 30 mg/kg versus indomethacin 1 mg/kg) | Group mean (±sd) pain threshold (g) of inflamed paw at 1 hour pre-dose ([1]; rats) [g] | Group mean (±sd) pain threshold (g) of inflamed paw at 2 hour pre-dose ([1]; rats) [g] | Fall in arterial blood pressure (mean absolute decrease in mean arterial pressure, SEM in brackets) evoked by balloon distension ([2]; 0.5 ml balloon volume, n=6, before drug 2.7 (1.9)) | Fall in arterial blood pressure (mean absolute decrease in mean arterial pressure, SEM in brackets) evoked by balloon distension ([2]; 1.0 ml balloon volume, n=6, before drug 12.4 (5.9)) | Fall in arterial blood pressure (mean absolute decrease in mean arterial pressure, SEM in brackets) evoked by balloon distension ([2]; 1.5 ml balloon volume, n=6, before drug 24.0 (8.9)) | Fall in arterial blood pressure (mean absolute decrease in mean arterial pressure, SEM in brackets) evoked by balloon distension ([2]; 2.0 ml balloon volume, n=6, before drug 36.3 (4.8), p<0.01 paired t test) | Fall in arterial blood pressure (mean absolute decrease in mean arterial pressure, SEM in brackets) evoked by balloon distension ([2]; 2.5 ml balloon volume, n=5, before drug 43.4 (6.0), p<0.05 paired t test) | Effect on distension-induced falls in blood pressure (in words) ([2]; MCI-225 3 mg/kg i.v., significant at 2.0 and 2.5 ml balloon volumes) |
| --- | --- | --- | --- | --- | --- | --- | --- | --- | --- | --- | --- |
| Cc1cc2c(-c3ccccc3F)nc(N3CCNCC3)nc2s1.Cl.O [MCI-225, 4-(2-Fluorophenyl)-6-methyl-2-(1-piperazinyl)thieno[2,3-D]pyrimidine monohydrate hydrochloride] | 32.3 | 66.9 | comparable to that of indomethacin | 147.7 ± 65.91 | 138.5 ± 34.72 | 2.2 (1.65) mmHg | 6.3 (2.6) mmHg | 10.6 (3.9) mmHg | 15.3 (5.4) mmHg | 24.6 (7.3) mmHg | inhibited the distension-induced falls in blood pressure |
| COc1ccc2c(c1)c(CC(=O)O)c(C)n2C(=O)c1ccc(Cl)cc1 [Indomethacin, indomethacin, reference compound] |  |  |  | 166.2 ± 68.32 | 144.2 ± 41.32 |  |  |  |  |  |  |
